# Assay results as given in patent US20250360132A1, “METHODS OF ADMINISTERING MYOSIN INHIBITORS” (MYOKARDIA, INC., priority 2022, published 2025).
# Columns and labels:
# [1] = tested on: patients with HCM and healthy subjects; assay: Human experience of overdose / high doses; type: in vivo
# CYP2C9 = CYP2C9 (Homo sapiens, UniProt P11712); assay: Metabolism, contribution of CYP2C9; type: in vitro ADME
# Description: (§1) Mavacamten is extensively metabolized, primarily through CYP2C19 (74%), CYP3A4 (18%), and CYP2C9 (8%).
# (§2) Statement of Purpose: Mavacamten is a first-in-class, selective, allosteric, and reversible cardiac myosin inhibitor in development for the treatment of adults with symptomatic obstructive hypertrophic cardiomyopathy. Mavacamten is hepatically metabolized predominantly via CYP2C19 (74%), CYP3A4 (18%) and CYP2C9 (8%). A previously developed fit-for-purpose physiologically based pharmacokinetic (PBPK) model was applied to explore the induction effects of a strong CYP3A4/CYP2C19 inducer-rifampin, as well as a strong CYP3A4 inducer-carbamazepine, on mavacamten exposures.
# CYP2C19 [2] = assay: Pharmacogenomics: CYP2C19 PMs vs NMs, single dose; type: in vivo, human; settings: single dose of 15 mg mavacamten
# Description: Mean half-life is prolonged in CYP2C19 PMs compared to NMs (23 days vs. 6 to 9 days, respectively).
# Polymorphic CYP2C19 is the main enzyme involved in the metabolism of MAVACAMTEN. An individual carrying two normal function alleles is a NM (e.g., *1/*1). An individual carrying two no function alleles is a PM (e.g., *2/*2, *2/*3, *3/*3).
# male or female rats = assay: Reproductive toxicity studies (mating and fertility); type: in vivo, rat
# [3] = Clinical pharmacokinetics; type: in vivo, human
# Experimental: At the same dose level of MAVACAMTEN, 170% higher exposures of mavacamten are observed in patients with HCM compared to healthy subjects.
# The Tmax was increased by 4 hours.
# Mavacamten has a variable terminal t1/2 that depends on CYP2C19 metabolic status. […] Drug accumulation occurs with an accumulation ratio of about 2-fold for Cmax and about 7-fold for AUC in CYP2C19 NMs. The accumulation depends on the metabolism status for CYP2C19 with the largest accumulation observed in CYP2C19 PMs. At steady-state, the peak-to-trough plasma concentration ratio with once daily dosing is approximately 1.5.
# Following a single 25 mg dose of radiolabeled mavacamten, 7% of the dose was recovered in feces (1% unchanged) and 85% in urine (3% unchanged).
# The effects of severe (eGFR: 15 to 30 mL/min/1.73 m^2) renal impairment and kidney failure (eGFR: <15 mL/min/1.73 m^2; including patients on dialysis) are unknown.
# [4] = tested on: adults with symptomatic NYHA class II and III obstructive HCM; settings: Olivotto et al., 2020, The Lancet; cited from earlier work
# CYP3A4 = CYP3A4 (Homo sapiens, UniProt P08684); assay: Clinical DDI with moderate CYP3A4 inhibitor verapamil; type: in vivo; set-up: host or cells: in silico (Simcyp v19 where stated); settings: mavacamten 25 mg with verapamil sustained release 240 mg; CYP2C19 IMs and NMs
# Chain of CYP3A4 (P08684 whole entry): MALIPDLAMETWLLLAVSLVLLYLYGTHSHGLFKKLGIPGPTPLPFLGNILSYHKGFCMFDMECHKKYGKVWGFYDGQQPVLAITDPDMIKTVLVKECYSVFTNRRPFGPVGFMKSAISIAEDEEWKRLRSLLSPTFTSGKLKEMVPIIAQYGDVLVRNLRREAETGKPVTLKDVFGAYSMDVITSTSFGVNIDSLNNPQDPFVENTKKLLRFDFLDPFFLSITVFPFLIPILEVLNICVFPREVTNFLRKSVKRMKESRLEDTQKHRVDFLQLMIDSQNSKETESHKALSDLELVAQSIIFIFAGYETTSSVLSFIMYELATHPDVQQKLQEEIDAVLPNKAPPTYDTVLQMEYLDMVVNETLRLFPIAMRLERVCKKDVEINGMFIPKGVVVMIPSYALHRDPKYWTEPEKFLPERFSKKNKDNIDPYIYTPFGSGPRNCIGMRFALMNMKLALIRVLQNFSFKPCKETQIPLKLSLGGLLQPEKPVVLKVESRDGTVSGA
# [5] = tested on: organic cation transporters (OCTs); assay: In vitro transporter inhibition; type: in vitro ADME
# pregnant rabbits = assay: Embryo-fetal development study in rabbits; type: in vivo, rabbit
# Experimental: Visceral findings consisted of malformations of the great vessels (dilatation of pulmonary trunk and/or aortic arch). Skeletal malformations consisted of higher incidences of fused sternebrae at ≥1.2 mg/kg/day. Plasma exposure (AUC) at the no-effect dose for embryo-fetal development in rabbits is 0.4 times the exposure in humans at the MRHD.
# CYP2B6 = assay: In vitro CYP induction; type: in vitro ADME
# Description: Mavacamten is a CYP2B6 inducer.
# [6] = tested on: organic anion transporters (OATs); assay: In vitro transporter inhibition; type: in vitro ADME
# bacterial = type: cell-based
# Description: (§3) Mavacamten was not genotoxic in a bacterial reverse mutation test (Ames test), a human in vitro lymphocyte […] assay, or a rat in vivo micronucleus assay.
# CYP2C19 [7] = molecular target: T1, CYP2C19 (Homo sapiens, UniProt P33261); assay: Clinical DDI with weak CYP2C19 inhibitor omeprazole; type: in vivo; set-up: host or cells: in silico (Simcyp v19); settings: mavacamten 15 mg with omeprazole 20 mg once daily; healthy CYP2C19 NMs and RMs
# T1 sequence (P33261 whole entry): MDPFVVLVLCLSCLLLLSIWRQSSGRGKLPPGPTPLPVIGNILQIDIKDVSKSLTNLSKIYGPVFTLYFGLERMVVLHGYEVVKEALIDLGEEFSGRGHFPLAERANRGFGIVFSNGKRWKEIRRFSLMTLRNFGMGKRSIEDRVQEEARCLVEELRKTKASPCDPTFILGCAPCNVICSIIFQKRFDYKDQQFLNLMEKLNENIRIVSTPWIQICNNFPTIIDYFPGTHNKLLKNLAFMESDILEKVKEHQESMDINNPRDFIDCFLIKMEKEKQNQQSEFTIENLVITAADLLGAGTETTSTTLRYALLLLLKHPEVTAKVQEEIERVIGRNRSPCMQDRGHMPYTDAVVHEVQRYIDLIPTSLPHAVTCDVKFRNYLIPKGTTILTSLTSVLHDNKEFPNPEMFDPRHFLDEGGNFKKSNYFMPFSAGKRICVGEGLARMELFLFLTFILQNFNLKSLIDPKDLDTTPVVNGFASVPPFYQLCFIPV
# CYP2C19 [8] = molecular target: T1, CYP2C19; assay: Metabolism, contribution of CYP2C19; type: in vitro ADME
# Description: as §1, §2
# rat = assay: Rat in vivo micronucleus assay
# Description: as §3
# human lymphocyte = assay: Human in vitro lymphocyte electrogenicity assay; type: cell-based
# Description: as §3
# HCM patients = assay: Meta-analysis of QTc across clinical studies; type: in vivo, human; settings: therapeutic exposure range
# Description: The effect of coadministration of MAVACAMTEN with QT-prolonging drugs or in patients with potassium channel variants resulting in a long QT interval have not been characterized.
# Chain of CYP2C9 (P11712 whole entry): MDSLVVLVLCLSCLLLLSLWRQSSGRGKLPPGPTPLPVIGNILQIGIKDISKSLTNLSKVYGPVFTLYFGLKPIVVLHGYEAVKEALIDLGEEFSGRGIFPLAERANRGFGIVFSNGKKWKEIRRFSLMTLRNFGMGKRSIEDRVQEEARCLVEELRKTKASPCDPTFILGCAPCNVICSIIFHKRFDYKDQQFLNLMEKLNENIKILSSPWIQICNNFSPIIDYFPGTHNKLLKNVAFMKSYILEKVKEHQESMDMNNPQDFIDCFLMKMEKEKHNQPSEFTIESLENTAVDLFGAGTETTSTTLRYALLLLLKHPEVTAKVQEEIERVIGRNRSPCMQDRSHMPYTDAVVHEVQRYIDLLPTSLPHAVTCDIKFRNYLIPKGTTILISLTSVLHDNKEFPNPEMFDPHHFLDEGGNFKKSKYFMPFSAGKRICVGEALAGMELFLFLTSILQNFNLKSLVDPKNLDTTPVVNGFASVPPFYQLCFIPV
smiles,measurement,setting,value
"CC(C)n1c(=O)cc(N[C@@H](C)c2ccccc2)[nH]c1=O [mavacamten, (S)-3-Isopropyl-6-((1-phenylethyl)amino)pyrimidine-2,4(1H,3H)-dione]",participants experiencing 20% or greater reductions in LVEF,"[1]; healthy subjects, 25 mg dose level, up to 25 days",3 of 8
same,Outcome of accidental ingestion,"[1]; infant, three 15 mg capsules",infant death
same,Events after single dose of 144 mg,"[1]; one subject with HCM, subject recovered","serious adverse events including vasovagal reaction, hypotension, and asystole"
same,Metabolism through CYP2C9,CYP2C9,8%
same,Increase in AUCinf in CYP2C19 PMs compared to NMs,CYP2C19 [2],241%
same,Increase in Cmax in CYP2C19 PMs compared to NMs,CYP2C19 [2],47%
same,Effects on viability and fertility of offspring,male or female rats; dams dosed up to 1.5 mg/kg/day,no evidence of effects
same,Plasma exposure (AUC) at the highest dose tested,male or female rats; vs humans at the MRHD,the same as in humans at the MRHD
same,Pharmacokinetics in specific populations,"[3]; age 18-82 years, sex, race, ethnicity, mild to moderate renal impairment",No clinically significant differences
same,Effect of food on pharmacokinetics,[3]; high fat meal,No clinically significant differences
same,Dose proportionality of exposure,[3]; multiple once-daily doses of 1 mg to 15 mg,increases generally dose proportionally
same,Higher exposure in patients with HCM compared to healthy subjects,[3]; same dose level,170%
same,Clinical benefit in EXPLORER-HCM,[4],"effective in reducing LVOT gradients and improving symptoms, exercise performance and health status"
same,Increase in mavacamten AUCinf,CYP3A4,15%
same,Increase in mavacamten Cmax,CYP3A4,52%
same,Inhibition of OCTs,[5],does not inhibit
same,Embryo-fetal findings (risk summary),"pregnant rabbits; both rabbits and rats, dose exposures similar to that at the MRHD",increases in visceral and skeletal malformations
same,Doses at which fetal malformations (visceral and skeletal) were increased,"pregnant rabbits; oral, period of organogenesis",≥ 1.2 mg/kg/day
same,Plasma exposure (AUC) at the no-effect dose for embryo-fetal development vs humans at the MRHD,pregnant rabbits; rabbits,0.4 times
same,Induction of CYP2B6,CYP2B6,inducer
same,Inhibition of OATs,[6],does not inhibit
same,"Genotoxicity, Ames test",bacterial,not genotoxic
same,Increase in mavacamten AUCinf,CYP2C19 [7],48%
same,Metabolism through CYP2C19,CYP2C19 [8],74%
same,"Genotoxicity, rat in vivo micronucleus assay",rat,not genotoxic
same,"Genotoxicity, human in vitro lymphocyte electrogenicity assay",human lymphocyte,not genotoxic
same,QTc interval in HCM patients,HCM patients,does not suggest clinically relevant increases in the QTc interval
